The results in this text go back to patent US20250161321A1, “AMINO ACID BASED CARBAMATES AND/OR UREAS FOR THE TREATMENT OF SORTILIN DEPENDENT DISEASES” (Vesper Bio ApS, priority 2022, published 2025).

For orientation: pIC50 means the negative decadic logarithm of the IC50, by convention in mol/L. Low readings indicate a high IC50, high ones a low IC50.

pIC50: −log10 of the molar value.

Sequence of h-Sortilin (Q99523 78-831): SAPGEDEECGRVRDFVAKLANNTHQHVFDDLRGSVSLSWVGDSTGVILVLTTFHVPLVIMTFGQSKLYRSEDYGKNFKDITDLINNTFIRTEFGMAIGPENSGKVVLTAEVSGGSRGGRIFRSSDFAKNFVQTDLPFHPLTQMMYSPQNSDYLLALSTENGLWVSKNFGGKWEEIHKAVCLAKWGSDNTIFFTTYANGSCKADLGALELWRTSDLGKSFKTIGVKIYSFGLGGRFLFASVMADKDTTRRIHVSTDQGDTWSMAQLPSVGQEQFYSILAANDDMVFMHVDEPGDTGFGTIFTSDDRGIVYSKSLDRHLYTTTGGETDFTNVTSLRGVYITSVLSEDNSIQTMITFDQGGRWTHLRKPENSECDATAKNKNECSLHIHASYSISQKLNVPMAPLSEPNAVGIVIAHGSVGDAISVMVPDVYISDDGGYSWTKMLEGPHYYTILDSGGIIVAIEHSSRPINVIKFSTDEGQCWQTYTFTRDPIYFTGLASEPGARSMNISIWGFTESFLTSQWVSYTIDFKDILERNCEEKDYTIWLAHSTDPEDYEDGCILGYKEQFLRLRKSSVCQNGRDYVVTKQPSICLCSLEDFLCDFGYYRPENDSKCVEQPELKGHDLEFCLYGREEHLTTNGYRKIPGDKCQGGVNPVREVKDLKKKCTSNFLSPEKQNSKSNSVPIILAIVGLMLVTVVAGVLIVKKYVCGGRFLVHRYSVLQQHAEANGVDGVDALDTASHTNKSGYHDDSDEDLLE

For the assay, the target named is h-Sortilin (Homo sapiens (Human), UniProt Q99523). In words: Neurotensin scintillation proximity assay (SORTILIN Binding Assay [3H]NT SPA). The settings on record: displacement of 5 nM [3H]-neurotensin from 150 nM 6his-Sortilin; average of at least 2 determinations. On the procedure:
The exemplified compounds of the invention were tested in a Neurotensin (NTS) scintillation proximity assay (SPA). NTS, which is a 13 amino acid neuropeptide, is a sortilin ligand. The IC50 is a measure of the amount of the compound required to inhibit the binding of NTS to sortilin by 50%. The skilled person will recognise that the lower the IC50 value, the less of the compound needed to achieve the desired effect, and as a result, the chances of undesirable off-target effects are reduced.
Compound affinity was determined by measuring the displacement of [^3H]-neurotensin binding to h-Sortilin in SPA format. Total volume of 40 μl in 50 mM HEPES pH 7.4 assay buffer containing 100 mM NaCl, 2.0 mM CaCl2, 0.1% BSA and 0.1% Tween-20. Compound pre-incubation for 30 minutes at room temperature with 150 nM of 6his-Sortilin before 5 nM [3H]-Neurotensin and Ni chelate imaging beads (Perkin Elmer) were added, after 6 hours the plate was read on a ViewLux with 360 s exposure time. Dose-response evaluation of compounds was performed with 8 concentrations of drugs (covering 3 decades). IC50 values were calculated by nonlinear regression using the sigmoid concentration-response (variable slope) using CDD Vault software. All values reported are average of at least 2 determinations.
(In general: In a scintillation proximity assay essentially only radioactivity close to the scintillant gives light.)
In turn, `CC(C)(C)CC[C@H](NC(=O)NCc1ccccc1)C(=O)O` [Example 1, (2S)-2-[(benzylcarbamoyl)amino]-5,5-dimethylhexanoic acid] showed a pIC50 of 6.42.

Consider `CN(Cc1ccccc1)C(=O)N[C@@H](CCC(C)(C)C)C(=O)O` [Example 2, (2S)-2-{[benzyl(methyl)carbamoyl]amino}-5,5-dimethylhexanoic acid], for which the pIC50 is 6.37.

As to `CC(C)(C)CC[C@H](NC(=O)N1CCOCC1)C(=O)O` [Example 4, (2S)-5,5-dimethyl-2-[(morpholine-4-carbonyl)amino]hexanoic acid], the pIC50 was 6.59.

Regarding `CC(C)(C)CC[C@H](NC(=O)N1CCCOCC1)C(=O)O` [Example 5, (2S)-5,5-dimethyl-2-[(1,4-oxazepane-4-carbonyl)amino]hexanoic acid], the pIC50 was 6.43.

In turn, `CC(C)(C)CC[C@H](NC(=O)OCc1ccccc1)C(=O)O` [Example 3, (2S)-2-{[(benzyloxy)carbonyl]amino}-5,5-dimethylhexanoic acid] showed a pIC50 of 6.25.
